Values of other authors in patent US20110064711A1, “COMPOSITIONS CONTAINING COENZYME Q-10 AND AN ANTIOXIDANT” (priority 2009, published 2011).

Conditions: exposure to ambient air; general statement, time not given

## COc1c(O)c(C)c(C/C=C(\C)CC/C=C(\C)CC/C=C(\C)CC/C=C(\C)CC/C=C(\C)CC/C=C(\C)CC/C=C(\C)CC/C=C(\C)CC/C=C(\C)CCC=C(C)C)c(O)c1OC [Commercial reduced CoQ10 powder]
  reduced form of CoQ10 on a weight basis after exposure to air: below 20%
